In test [1] the test system is Staphylococcus aureus subsp. aureus (ATCC29213). The experiment in a line: MIC, broth microdilution (CLSI), Staphylococcus aureus ATCC29213. Type of test: cell-based. As to conditions: Staphylococcus aureus.
Test [2] has as its system Escherichia coli (ATCC25922). The experiment in a line: MIC, broth microdilution (CLSI), Escherichia coli. As to conditions: Escherichia coli, ATCC25922, read-out: E. coli ATCC 25922 MIC, Table XIII. For orientation: In broth dilution the organism is exposed to a series of concentrations in liquid medium.
The subject of test [3] is E. coli RNase P RNA, M1 RNA. Kind of test: Inhibition of bacterial RNase P activity, IC50 determination (cleavage of pATSerUG by M1 RNA). Format: biochemical. The conditions noted are these: NI: No inhibition.
The test system of test [4] is Staphylococcus aureus (ATCC25923). Kind of test: MIC, broth microdilution (CLSI), Staphylococcus aureus ATCC25923. The conditions noted are these: Staphylococcus aureus, ATCC25923, read-out: S. aureus ATCC 25923 MIC.
Setting [5] is: ATCC29213, read-out: S. aureus ATCC 29213 MIC, Table XIII.
Where [6] appears, read: ATCC29213, Table XIII, read-out: S. aureus ATCC 29213 MIC.

For orientation: MIC means the lowest concentration found to suppress growth. What is called IC50 is the concentration at which inhibition is half-maximal. Lower therefore signals inhibition by little substance.

Structures are written as SMILES. Values after ≈ are worked out from the molar mass of the structure shown. Structures can show the parent of a compound that is named as a salt. Where two headings read alike, the source gives them in different places.

For `Cc1cccc(C(CCNC2CCNCC2)c2cn(CC3CCNCC3)c3ccc(C#N)cc23)c1` (centres unmarked) [Compound 326, 3-(3-(piperidin-4-ylamino)-1-(m-tolyl)propyl)-1-(piperidin-4-ylmethyl)-1H-indole-5-carbonitrile hydrochloride salt], the minimal inhibitory concentration (MIC) in test [1] (setting [5]) was determined as 32 µg/mL; in test [2], 128 µg/mL.

`Cc1cccc(C(CCNC2CCC(N)CC2)c2cn(C3CCNCC3)c3ccccc23)c1` (centres unmarked) [Compound 306, N1-(3-(1-(piperidin-4-yl)-1H-indol-3-yl)-3-(m-tolyl)propyl)cyclohexane-1,4-diamine hydrochloride salt]: the MIC in test [1] (setting [5]) is 16 µg/mL; in test [2], > 128 µg/mL.

As for `Cl.Cl.c1ccc2c(c1)c(C(CCNC1CCNCC1)c1ccncc1)cn2C1CCCCC1` (centres unmarked) [Compound 335, N-(3-(1-cyclohexyl-1H-indol-3-yl)-3-(pyridin-4-yl)propyl)piperidin-4-amine hydrochloride salt], the MIC in test [1] (setting [6]) and in test [2] was 64 µg/mL each time.

In the case of `CNCCCNCCC(c1cccc(C)c1)c1cn(C2CCCCC2)c2ccccc12.Cl.Cl` (centres unmarked) [Compound 368, N1-(3-(1-cyclohexyl-1H-indol-3-yl)-3-(m-tolyl)propyl)-N3-methylpropane-1,3-diamine hydrochloride], the MIC in test [1] (setting [6]) and in test [2] was 8 µg/mL in each case.

Turning to `Cc1cccc(C(CCNC2CCC(N)CC2)c2cn(C3CCOCC3)c3ccccc23)c1` (centres unmarked) [Compound 307, N1-(3-(1-(tetrahydro-2H-pyran-4-yl)-1H-indol-3-yl)-3-(m-tolyl)propyl) cyclohexane-1,4-diamine hydrochloride salt], the MIC in test [1] (setting [5]) and in test [2] was 64 µg/mL in each case.

For the compound `Cl.Cl.NCCCNCCC(c1ccncc1)c1cn(C2CC3CCC2C3)c2ccccc12` (centres unmarked) [Compound 338, N1-(3-(1-(bicyclo[2.2.1]heptan-2-yl)-1H-indol-3-yl)-3-(pyridin-4-yl)propyl)propane-1,3-diamine hydrochloride salt], the MIC in test [1] (setting [6]) came to 64 µg/mL; in test [2], 128 µg/mL.

`Cc1cccc(C(CCNCC2(CN)CC2)c2cn(C3CCCCC3)c3ccccc23)c1` (centres unmarked) [Compound 390, N-((1-(aminomethyl)cyclopropyl)methyl)-3-(1-cyclohexyl-1H-indol-3-yl)-3-(m-tolyl)propan-1-amine]: the minimum inhibitory concentration (MIC) in test [1] (setting [6]) and in test [2] was 8 µg/mL (≈ 18.6 µM) each time.

In test [3], `Cc1cccc(C(CC(=O)NC2CCC(N)CC2)c2cn(CC3CCCCC3)c3ccc(-c4ccccc4C)cc23)c1.Cl` [Compound 221, N-((1S,4S)-4-aminocyclohexyl)-3-(1 - (cyclohexylmethyl)-5-(o-tolyl)-1H-indol-3-yl)-3-(m-tolyl)propanamide hydrochloride salt] registered an IC50 of 3.4 µM. The MIC in test [2] was > 512 µg/mL; in test [4], 38 µg/mL.

As to `NC1CCC(NC(=O)Cc2cn(CC3CCCCC3)c3ccc(-c4ccncc4)cc23)CC1` [Compound 255, N-((1S,4S)-4-aminocyclohexyl)-2-(1-(cyclohexylmethyl)-5-(pyridin-4-yl)-1H-indol-3-yl)acetamide hydrochloride salt], in test [3], the IC50 amounted to 33 µM. Moreover, the MIC was 66 µg/mL in test [2] and 8 µg/mL in test [4].

As to `NC1CCC(NCCC(c2cccc(F)c2)c2cn(CC3CCCCC3)c3ccccc23)CC1` [Compound 172, (1S,4S)-N1-(3-(1-(cyclohexylmethyl)-1H-indol-3-yl)-3-(3-fluorophenyl)propyl) cyclohexane-1,4-diamine hydrochloride salt], in test [3], the concentration for half-maximal inhibition (IC50) was 10 µM. For the same compound, the minimum inhibitory concentration (MIC) in test [2] and in test [4] was 4 µg/mL in each case.

The compound `Cc1cccc(C(CC(=O)NC2CCNCC2)c2cn(Cc3ccccc3)c3ccccc23)c1.Cl` (centres unmarked) [Compound 80, 3-(1-benzyl-1H-indol-3-yl)-N-(piperidin-4-yl)-3-(m-tolyl)propanamide hydrochloride salt] displayed a 50% inhibitory concentration (IC50) in test [3] of 41 µM. Further, the minimum inhibitory concentration (MIC) was found to be 64 µg/mL in test [2] and 32 µg/mL in test [4].

In test [3], `Cc1cccc(C(CC(=O)NCC2CCNCC2)c2cn(Cc3ccccc3)c3ncccc23)c1.Cl` (centres unmarked) [Compound 69, 3-(1-benzyl-1H-pyrrolo[2,3-b]pyridin-3-yl)-N-(piperidin-4-ylmethyl)-3-(m-tolyl)propanamide hydrochloride salt] showed an IC50 of 825 µM. Moreover, the minimal inhibitory concentration (MIC) in test [2] and in test [4] was > 512 µg/mL each time.

For the compound `Cc1cccc(-c2ccc3c(c2)c(CCCN[C@H]2CC[C@H](N)CC2)cn3CC2CCCCC2)c1` [Compound 207, (1R,4R)-N1-(3-(1-(cyclohexylmethyl)-5-(m-tolyl)-1H-indol-3-yl)propyl)cyclohexane-1,4-diamine hydrochloride salt], in test [3], 17 µM corresponded to half-maximal inhibition (IC50). Also, the minimum inhibitory concentration (MIC) in test [2] and in test [4] was 4 µg/mL throughout.

In the case of `Cc1cc(F)cc(C(CC(=O)NC2CCC(N)CC2)c2cn(CC3CCCCC3)c3ccccc23)c1.Cl` [Compound 150, N-((1S,4S)-4-aminocyclohexyl)-3-(1-(cyclohexylmethyl)-1H-indol-3-yl)-3-(3-fluoro-5-methylphenyl) propanamide hydrochloride salt], inhibition in test [3] was half-maximal at 64 µM (IC50). Moreover, the values for the MIC in test [2] and in test [4] were 512 µg/mL and 8 µg/mL, respectively.

For `Cl.N[C@H]1CC[C@H](NC(=O)c2cn(CC3CCCCC3)c3ccc(Br)cc23)CC1` [Compound 268, N-((1R,4R)-4-aminocyclohexyl)-5-bromo-1-(cyclohexylmethyl)-1H-indole-3-carboxamide hydrochloride salt], inhibition in test [3] was half-maximal at 59 µM (IC50). Moreover, the MIC worked out at 30 µg/mL in test [2] and 15 µg/mL in test [4].

In the case of `Cc1cccc(C(CC(=O)N[C@H]2CC[C@@H](N)CC2)c2cn(Cc3ccccc3)c3ncccc23)c1.Cl` (some centres unmarked) [Compound 41, N-((1s,4s)-4-aminocyclohexyl)-3-(1-benzyl-1H-pyrrolo[2,3-b]pyridin-3-yl)-3-(m-tolyl)propanamide hydrochloride salt], the IC50 in test [3] was determined as 980 µM. The MIC is > 512 µg/mL in test [2] and 258 µg/mL in test [4].

The compound `Cc1cccc(C(CC(=O)NC2CCNCC2)c2cn(CC3CCCC3)c3ccccc23)c1.Cl` (centres unmarked) [Compound 112, 3-(1-(cyclopentylmethyl)-1H-indol-3-yl)-N-(piperidin-4-yl)-3-(m-tolyl)propanamide hydrochloride salt] displayed an IC50 in test [3] of 68 µM. Moreover, the minimal inhibitory concentration (MIC) was determined as 64 µg/mL in test [2] and 16 µg/mL in test [4].

For `Cc1cccc(C(CC(=O)NCC2CNCCO2)c2cn(CC3CCCCC3)c3ccccc23)c1.Cl` (centres unmarked) [Compound 280, 3-(1-(cyclohexylmethyl)-1H-indol-3-yl)-N-(morpholin-2-ylmethyl)-3-(m-tolyl)propanamide hydrochloride salt], half-maximal inhibition in test [3] (IC50) required 103 µM. Besides, the minimum inhibitory concentration (MIC) in test [2] amounted to 131 µg/mL; in test [4] it was 16 µg/mL.

`N[C@@H](Cc1cn(CC2CCCCC2)c2ccccc12)C(=O)N[C@H]1CC[C@H](N)CC1` [Compound 264, (S)-2-amino-N-((1R,4S)-4-aminocyclohexyl)-3-(1-(cyclohexylmethyl)-1H-indol-3-yl)propanamide hydrochloride salt] yielded a 50% inhibitory concentration (IC50) in test [3] of 298 µM. Also, the figures for the MIC in test [2] and in test [4] were > 512 µg/mL and 240 µg/mL, respectively.

With `O=C(CC(c1cn(CC2CCCCC2)c2ccccc12)C1CCNCC1)NCCC1CCNCC1` (centres unmarked) [Compound 145, 3-(1-(cyclohexylmethyl)-1H-indol-3-yl)-3-(piperidin-4-yl)-N-(2-(piperidin-4-yl)ethyl)propanamide hydrochloride salt], half-maximal inhibition in test [3] (IC50) required 1480 µM. The minimum inhibitory concentration (MIC) was > 512 µg/mL in test [2] and 512 µg/mL in test [4].

The values are drawn from patent US20210246115A1 (Bioimics AB, priority 2017, published 2021).
